From patent US12459967B2, “Modulators of 5′-nucleotidase, ecto and the use thereof” (Arcus Biosciences, Inc., priority 2016, dated 2025)

Target: T1, human CD73 (Homo sapiens, UniProt P21589)
T1 construct: host or cells: CHO-K1 (suspension pool CHO-CD73)
T1 sequence (P21589 27-549): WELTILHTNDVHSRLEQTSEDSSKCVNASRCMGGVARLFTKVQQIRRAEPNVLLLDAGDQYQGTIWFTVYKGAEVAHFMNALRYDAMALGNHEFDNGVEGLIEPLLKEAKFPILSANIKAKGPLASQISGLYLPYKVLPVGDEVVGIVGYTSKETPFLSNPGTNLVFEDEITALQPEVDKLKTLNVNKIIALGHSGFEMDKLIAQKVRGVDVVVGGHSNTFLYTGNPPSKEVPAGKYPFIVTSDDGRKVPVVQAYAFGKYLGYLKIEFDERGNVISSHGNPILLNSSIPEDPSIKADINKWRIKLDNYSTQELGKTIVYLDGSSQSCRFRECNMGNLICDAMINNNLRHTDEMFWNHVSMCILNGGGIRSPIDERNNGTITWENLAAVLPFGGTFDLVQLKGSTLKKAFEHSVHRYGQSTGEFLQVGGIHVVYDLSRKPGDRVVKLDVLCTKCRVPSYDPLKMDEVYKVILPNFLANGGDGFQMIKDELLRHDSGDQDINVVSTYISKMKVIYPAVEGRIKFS
Test: Inhibition of ecto-5′-nucleotidase (CD73) activity in CHO-CD73 cells, phosphate colorimetric readout
Assay type: cell-based
Conditions: CHO-K1 cells stably transfected with human CD73, 2500 cells per well, 25 μM AMP substrate, 50 minutes incubation at 37° C.; read-out: Potency: CD73 IC50
Method: Inhibition of Ecto-5′-nucleotidase Activity. Compounds were evaluated to determine their ecto-5′-nucleotidase (CD73) inhibitory activity. Briefly, CHO-K1 cells stably transfected with human CD73 were generated by LakePharma (Belmont, CA) using molecular cloning of human CD73 (http://www.uniprot.org/uniprot/P21589) and mammalian transient expression vector (P21589.1). After antibiotic selection in CD OptiCHO cell media (Invitrogen, Catalog #12681-011) containing 5 μg/mL Puromycin and 200 μg/mL Hygromycin B, a suspension pool of CHO-CD73 cells was collected and frozen in 7.5% DMSO in cell media without antibiotics.
On the day of the experiment, one vial of CHO-CD73 cells was thawed and suspended in assay media which consisted of 20 mM HEPES, pH 7.4, 137 mM NaCl, 5.4 mM KCl, 1.3 mM CaCl2), 4.2 mM NaHCO3 and 0.1% glucose. To test the ability of compounds to inhibit CD73 enzymatic activity, 2 μL of 500 μM of compounds dissolved in DMSO (50×) were added to a 96-well polystyrene plate containing 58 μL of assay buffer. Next, 20 μL of CHO-CD73 cells in assay buffer were added to assay plate followed by 20 μL of 125 μM AMP (Adenosine 5′-monophosphate monohydrate) in assay buffer. Final assay conditions consisted of 2500 cells per well in 2% DMSO and 25 μM of AMP substrate. After 50 minutes of incubation (37° C. and 5% CO2) and centrifugation at 225×g for 5 mins, 80 μL of supernatant were transferred to a 96-well Spectra Plate (PerkinElmer, cat #6005640) which was pre-dispensed with 20 μL of PiColorLock Gold colorimetric assay reagents (Thermo, cat #30 300 30). The amount of inorganic phosphate was determined by reading the absorbance at 620 nm on an EnVision Multilabel Plate Reader (PerkinElmer). Enzymatic activity of CD73 was based on the amount of phosphate generated. Percentage of activity was calculated based on DMSO and no cells control wells. IC50 values of compounds were determined by four parameter non-linear regression fitting of percentage of activity in GraphPad Prism software.

| SMILES | IC50 |
| --- | --- |
| O=P(O)(O)CP(=O)(O)OC[C@H]1O[C@@H](n2cnc3c(NC4CCCC4)nc(C(F)(F)F)nc32)[C@@H](F)[C@@H]1O | < 100 nM |
| CN(c1nc(Cl)nc2c1ncn2[C@@H]1O[C@H](COP(=O)(O)CP(=O)(O)O)[C@@H](O)[C@H]1O)C1CCCC1 | < 100 nM |
| Nc1ncnc2c1ncn2[C@@H]1O[C@H](COP(=O)(O)CP(=O)(O)O)[C@@H](O)[C@H]1F | > 1000 nM |
| CC(C)(C)c1ccc(CNc2nc(Cl)nc3c2ncn3[C@@H]2O[C@H](COP(=O)(O)CP(=O)(O)O)[C@@H](O)[C@H]2O)cc1 | < 100 nM |
| C[C@@H](Nc1nc(Cl)nc2c1ccn2[C@@H]1O[C@H](COP(=O)(O)CP(=O)(O)O)[C@@H](O)[C@@H]1F)c1ccc(F)cc1 | < 100 nM |
| O=P(O)(O)CP(=O)(O)OC[C@H]1O[C@@H](n2ncc3c(NCc4ccc(Cl)cc4)nc(Cl)nc32)[C@H](O)[C@@H]1O | < 100 nM |
| C[C@@]1(O)[C@H](O)[C@@H](COP(=O)(O)CP(=O)(O)O)O[C@H]1n1cnc2c(NC3CCCC3)nc(Cl)nc21 | < 100 nM |
| O=P(O)(O)CP(=O)(O)OC[C@H]1O[C@@H](n2ncc3c(NC4CCCC4)cc(Cl)nc32)[C@@H](F)[C@@H]1O | < 100 nM |
| CNc1nc(NCc2ccccc2)c2ncn([C@@H]3O[C@H](COP(=O)(O)CP(=O)(O)O)[C@@H](O)[C@H]3O)c2n1 | < 100 nM |
| O=P(O)(O)CP(=O)(O)OC[C@H]1O[C@@H](n2cnc3c(NCc4ccc(Cl)cc4)nc(Cl)nc32)[C@@H](F)[C@@H]1O | < 100 nM |
| CN(c1nc(Cl)nc2c1ncn2[C@@H]1O[C@H](COP(=O)(CP(=O)(Oc2cccc(Cl)c2)Oc2cccc(Cl)c2)Oc2cccc(Cl)c2)[C@@H](O)[C@H]1O)C1CCCC1 (stereo partly shown) | > 1000 nM |
| CN(c1nc(Cl)nc2c1ncn2[C@@H]1O[C@H](COP(=O)(O)CP(=O)(O)O)[C@@H](O)[C@@]1(C)O)C1CCCC1 | < 100 nM |
| CN(c1nc(Cl)nc2c1cnn2[C@@H]1O[C@H](COP(=O)(O)CP(=O)(O)O)[C@@H](O)[C@H]1O)C1CCCC1 | < 100 nM |
| C[C@@H](Nc1nc(Cl)nc2c1ccn2[C@@H]1O[C@H](COP(=O)(O)CP(=O)(O)O)[C@@H](O)[C@@H]1F)c1cccc(F)c1 | < 100 nM |
| C[C@@H](Nc1nc(Cl)nc2c1ccn2[C@@H]1O[C@H](COP(=O)(O)CP(=O)(O)O)[C@@H](O)[C@@H]1F)c1ccccc1F | < 100 nM |
| O=P(O)(O)CP(=O)(O)OC[C@H]1O[C@@H](n2cnc3c(OCc4ccccc4)nc(Cl)nc32)[C@@H](F)[C@@H]1O | < 100 nM |
| O=P(O)(O)CP(=O)(O)OC[C@H]1O[C@@H](n2cnc3c(NCc4ccc(-c5ccccc5)cc4)ncnc32)[C@H](O)[C@@H]1O | < 100 nM |

| SMILES | IC50 |
| --- | --- |
| O=P(O)(O)CP(=O)(O)OC[C@H]1O[C@@H](n2ccc3c(NC4CCCC4)nc(Cl)nc32)[C@@H](F)[C@@H]1O | < 100 nM |
| O=P(O)(O)CP(=O)(O)OC[C@H]1O[C@@H](n2ncc3c(NCCc4ccccc4Cl)nc(Cl)nc32)[C@H](O)[C@@H]1O | < 100 nM |
| O=P(O)(O)CP(=O)(O)OC[C@H]1O[C@@H](n2cnc3c(NCc4ccncc4)nc(Cl)nc32)[C@@H](F)[C@@H]1O | < 100 nM |
| O=P(O)(O)CP(=O)(O)OC[C@H]1O[C@@H](n2ccc3c(NCc4ccccc4)nc(Cl)nc32)[C@@H](F)[C@@H]1O | < 100 nM |
| CC(Cn1cnc2c(NCc3ccccc3)ncnc21)OP(=O)(O)CP(=O)(O)O (stereo not shown) | > 1000 nM |
| Nc1nc(F)nc2c1ncn2[C@@H]1O[C@H](COP(=O)(O)CP(=O)(O)O)[C@@H](O)[C@@H]1O | 100 to 1000 nM |
| O=P(O)(O)CP(=O)(O)OC[C@H]1O[C@@H](n2cnc3c(NC4CC4)nc(Cl)nc32)[C@@H](F)[C@@H]1O | < 100 nM |
| C[C@@H](Nc1nc(Cl)nc2c1cnn2[C@@H]1O[C@H](COP(=O)(O)CP(=O)(O)O)[C@@H](O)[C@@H]1F)c1ccc(F)cc1 | < 100 nM |
| O=P(O)(O)CP(=O)(O)OC[C@H]1O[C@@H](n2cnc3c(NCc4cc(C(F)(F)F)cc(C(F)(F)F)c4)ncnc32)[C@H](O)[C@@H]1O | < 100 nM |
| O=P(O)(O)CP(=O)(O)OC[C@H]1O[C@@H](n2ncc3c(N[C@H](c4ccccc4)C(F)(F)F)nc(Cl)nc32)[C@H](O)[C@@H]1O | < 100 nM |
| O=P(O)(O)CP(=O)(O)OC[C@H]1O[C@@H](n2cnc3c(NCCc4ccccc4)nc(Cl)nc32)[C@@H](F)[C@@H]1O | < 100 nM |
| C[C@H](Nc1nc(Cl)nc2c1ncn2[C@@H]1O[C@H](COP(=O)(O)CP(=O)(O)O)[C@@H](O)[C@@H]1F)c1ccc(F)cc1 | < 100 nM |
| O=P(O)(O)CP(=O)(O)OC[C@H]1O[C@@H](n2cnc3c(NCc4ccccc4)nc(C(O)c4ccccc4)nc32)[C@@H](F)[C@@H]1O (stereo partly shown) | < 100 nM |
| COP(=O)(CP(=O)(O)OC[C@H]1O[C@@H](n2cnc3c(N(C)C4CCCC4)nc(Cl)nc32)[C@@H](F)[C@@H]1O)OC | > 1000 nM |
| CN(c1nc(Cl)nc2c1ncn2[C@@H]1O[C@H](COP(=O)(CP(=O)(Oc2ccc(Cl)c(Cl)c2)Oc2ccc(Cl)c(Cl)c2)Oc2ccc(Cl)c(Cl)c2)[C@@H](O)[C@H]1O)C1CCCC1 (stereo partly shown) | > 1000 nM |
| CN(Cc1ccccc1)c1nc(Cl)nc2c1ncn2[C@@H]1O[C@H](COP(=O)(O)CP(=O)(O)O)[C@@H](O)[C@@H]1F | < 100 nM |

Continued, values first:

| IC50 | SMILES |
| --- | --- |
| < 100 nM | O=P(O)(O)CP(=O)(O)OC[C@H]1O[C@@H](n2cnc3c(N4CCCCC4)nc(Cl)nc32)[C@@H](F)[C@@H]1O |
| < 100 nM | C[C@H](Nc1nc(Cl)nc2c1ccn2[C@@H]1O[C@H](COP(=O)(O)CP(=O)(O)O)[C@@H](O)[C@@H]1F)c1cccc(F)c1 |
| < 100 nM | C#Cc1nc(NCc2ccccc2)c2ncn([C@@H]3O[C@H](COP(=O)(O)CP(=O)(O)O)[C@@H](O)[C@@H]3F)c2n1 |
| < 100 nM | C[C@@H](Nc1cc(Cl)nc2c1cnn2[C@@H]1O[C@H](COP(=O)(O)CP(=O)(O)O)[C@@H](O)[C@@H]1F)c1ccccc1 |
| < 100 nM | O=P(O)(O)CP(=O)(O)OC[C@H]1O[C@@H](n2ncc3c(NC4CCCC4)nc(Cl)nc32)[C@H](O)[C@@H]1O |
| < 100 nM | Nc1nc(C(O)C2CC2)nc2c1ncn2[C@@H]1O[C@H](COP(=O)(O)CP(=O)(O)O)[C@@H](O)[C@@H]1F (stereo partly shown) |
| < 100 nM | CCNc1nc(Cl)nc2c1ncn2[C@@H]1O[C@H](COP(=O)(O)CP(=O)(O)O)[C@@H](O)[C@@H]1F |
| < 100 nM | CN(c1nc(Cl)cc2c1ncn2[C@@H]1O[C@H](COP(=O)(O)CP(=O)(O)O)[C@@H](O)[C@@H]1F)C1CCCC1 |
| < 100 nM | O=P(O)(O)CP(=O)(O)OC[C@H]1O[C@@H](n2cnc3c(NC4CCCC4)nc(Cl)cc32)[C@H](O)[C@@H]1O |
| < 100 nM | C[C@H](Nc1nc(Cl)nc2c1ccn2[C@@H]1O[C@H](COP(=O)(O)CP(=O)(O)O)[C@@H](O)[C@H]1O)c1cccc(F)c1 |
| < 100 nM | C[C@H](Nc1nc(Cl)nc2c1cnn2[C@@H]1O[C@H](COP(=O)(O)CP(=O)(O)O)[C@@H](O)[C@@H]1F)c1cccc(F)c1 |
| < 100 nM | O=P(O)(O)CP(=O)(O)OC[C@H]1O[C@@H](n2ncc3c(NCc4ccccc4)nc(Cl)nc32)[C@H](O)[C@@H]1O |
| < 100 nM | C[C@H](Nc1cc(Cl)nc2c1cnn2[C@@H]1O[C@H](COP(=O)(O)CP(=O)(O)O)[C@@H](O)[C@H]1O)c1ccccc1 |
| < 100 nM | C[C@H](Nc1nc(Cl)nc2c1ccn2[C@@H]1O[C@H](COP(=O)(O)CP(=O)(O)O)[C@@H](O)[C@@H]1F)c1ccccc1F |
| < 100 nM | O=P(O)(O)CP(=O)(O)OC[C@H]1O[C@@H](n2cnc3c(N4CCOCC4)nc(Cl)nc32)[C@@H](F)[C@@H]1O |
| < 100 nM | C[C@H](Nc1nc(Cl)nc2c1cnn2[C@@H]1O[C@H](COP(=O)(O)CP(=O)(O)O)[C@@H](O)[C@@H]1F)c1ccc(F)cc1 |
